Experiments:
[1] = Inhibition of TNF-alpha production in LPS stimulated human PBMC at 360 uM; assay type: functional
[2] = Inhibition of TNF-alpha production in LPS stimulated human PBMC; assay type: functional

IC50 [2] | Structure (SMILES) | inhibition at 360 µM [1]
– | O=C1CCC(F)(N2C(=O)c3ccccc3C2=O)C(=O)N1 (stereo not drawn) | 80%
230 nM | Nc1cccc2c1C(=O)N(C1(F)CCC(=O)NC1=O)C2=O (stereo not drawn) | –
230 nM | Nc1cccc2c1C(=O)N(C1CCC(=O)NC1=O)C2=O (stereo not drawn) [POMALIDOMIDE] | –

From ChEMBL document CHEMBL1136276, “Alpha-fluoro-substituted thalidomide analogues” (Bioorg Med Chem Lett, 2003)
